Test results published in ChEMBL document CHEMBL5137017, “Identification of NVP-CLR457 as an Orally Bioavailable Non-CNS-Penetrant pan-Class IA Phosphoinositol-3-Kinase Inhibitor” (J Med Chem, 2022).

Columns and labels:
[1] = Brain to blood ratio in OF1 mouse at 1 mg/kg, iv measured at 5 mins post dose by LC-MS/MS analysis; assay type: ADME, organism-based; settings: brain and blood, read-out: BBR
[2] = Stability in mouse liver microsomes assessed as hepatic extraction preincubated for 3 mins followed by NADPH addition and measured after 60 mins; assay type: ADME, Microsome; settings: time 63 min, read-out: ERH
[3] = Stability in human liver microsomes assessed as hepatic extraction preincubated for 3 mins followed by NADPH addition and measured after 60 mins; assay type: ADME, Microsome; settings: read-out: ERH
[4] = target: Phosphatidylinositol 4,5-bisphosphate 3-kinase catalytic subunit alpha isoform (Homo sapiens, UniProt P42336); test: Inhibition of PI3Kalpha (unknown origin) using L-alpha-phosphatidylinositol as substrate in presence of ATP by Kinase Glo luminescence assay
[5] = target: Phosphatidylinositol 4,5-bisphosphate 3-kinase catalytic subunit gamma isoform (Homo sapiens, UniProt P48736); test: Inhibition of PI3Kgamma (unknown origin) using phosphatidylinositol 4,5-bisphosphate as substrate measured for 15 to 60 mins by TR-FRET based Adapta universal kinase assay
[6] = Inhibition of PI3K PTEN mutant in human MDA-MB-468 cells assessed as reduction in phosphorylation of AKT at Ser473 residue by Western blot analysis; assay type: cell-based
[7] = Inhibition of PI3K PTEN mutant in human BT-549 cells assessed as reduction in phosphorylation of AKT at Ser473 residue by Western blot analysis; assay type: cell-based
[8] = Inhibition of PI3K PTEN mutant in human HCC38 cells assessed as reduction in phosphorylation of AKT at Ser473 residue by Western blot analysis; assay type: cell-based
[9] = Volume of distribution at steady state in OF1 mouse at 10 mg/kg,po or 3 mg/kg,iv measured upto 24 hrs by LC-MS/MS analysis; assay type: ADME, organism-based; settings: in vivo
[10] = Volume of distribution at steady state in beagle dog at 0.3 mg/kg,po or 0.1 mg/kg,iv measured upto 24 hrs by LC-MS/MS analysis; assay type: ADME, organism-based, Canis lupus familiaris; settings: in vivo
[11] = Half life in beagle dog at 0.3 mg/kg,po or 0.1 mg/kg,iv measured upto 24 hrs by LC-MS/MS analysis; assay type: ADME, organism-based, Canis lupus familiaris; settings: in vivo
[12] = Dose normalized AUC in OF1 mouse plasma at 3 mg/kg, iv measured upto 24 hrs by LC-MS/MS analysis; assay type: ADME, organism-based; settings: in vivo
[13] = Dose normalized AUC in OF1 mouse plasma at 10 mg/kg, po measured upto 24 hrs by LC-MS/MS analysis; assay type: ADME, organism-based; settings: in vivo
[14] = Oral bioavailability in beagle dog at 0.3 mg/kg measured upto 24 hrs by LC-MS/MS analysis; assay type: ADME, organism-based, Canis lupus familiaris; settings: in vivo
[15] = Cmax in beagle dog at 0.3 mg/kg,po or 0.1 mg/kg,iv measured upto 24 hrs by LC-MS/MS analysis; assay type: ADME, organism-based, Canis lupus familiaris; set-up: dose 0.3 mg/kg, time < 24 hrs, route po; settings: in vivo
[16] = Dose normalized Cmax in Sprague-Dawley rat at 30 mg/kg, po measured upto 24 hrs by LC-MS/MS analysis; assay type: ADME, organism-based; settings: in vivo
[17] = Dose normalized Cmax in beagle dog at 0.3 mg/kg, po measured upto 24 hrs by LC-MS/MS analysis; assay type: ADME, organism-based, Canis lupus familiaris; settings: in vivo
[18] = Tmax in Sprague-Dawley rat at 100 mg/kg, po measured upto 24 hrs by LC-MS/MS analysis; assay type: ADME, organism-based; settings: in vivo
[19] = Tmax in Beagle dog at 6 mg/kg, po measured upto 24 hrs using crystalline form of sample by LC-MS/MS analysis; assay type: ADME, organism-based, Canis lupus familiaris; settings: in vivo
[20] = Apparent permeability across basolateral to apical side in human Caco-2 cells at 10 uM measured after 120 mins by LC-MS/MS analysis; assay type: ADME, cell-based
Rat1 [21] = test: Antitumor activity at rat Rat1 cells expressing myr-p110alpha xenografted in athymic nude mouse assessed as T/C ratio at 3 mg/kg, po qd measured after 14 to 22 days; assay type: functional; settings: time 14-22 day
Rat1 [22] = test: Antitumor activity at rat Rat1 cells expressing myr-p110alpha xenografted in athymic nude mouse assessed as tumor growth inhibition at 20 mg/kg, po bid measured after 9 days; assay type: functional; settings: Rat1, 216 h, time 9 day
[23] = Effect on plasma insulin level in athymic nude mouse xenografted with rat Rat1 cells expressing myr-p110alpha at 20 mg/kg, po qd measured for 1 to 10 hrs by glucometer analysis; assay type: toxicity, organism-based; settings: in vivo, time 1-10 hrs
[24] = Cmax in athymic nude mouse xenografted with rat Rat1 cells expressing myr-p110alpha at 20 mg/kg, po measured after 8 days by LC-MS/MS analysis; assay type: ADME, organism-based; set-up: time 8 day, dose 20 mg/kg, route po; settings: in vivo
[25] = Cmax in athymic nude mouse xenografted with rat Rat1 cells expressing myr-p110alpha at 40 mg/kg, po measured after 8 days by LC-MS/MS analysis; assay type: ADME, organism-based; set-up: dose 40 mg/kg, time 8 day, route po; settings: in vivo
[26] = Clast in athymic nude mouse xenografted with rat Rat1 cells expressing myr-p110alpha at 20 mg/kg, po measured after 8 days by LC-MS/MS analysis; assay type: ADME, organism-based; settings: in vivo, time 8 day, read-out: Clast
[27] = Tlast in athymic nude mouse xenografted with rat Rat1 cells expressing myr-p110alpha at 10 mg/kg, po measured after 8 days by LC-MS/MS analysis; assay type: ADME, organism-based; settings: in vivo, 192 h, time 8 day
[28] = target: Serine/threonine-protein kinase mTOR (Mus musculus, UniProt Q9JLN9); test: Inhibition of mTOR in Tscl-/- null mouse MEF assessed as reduction on RPS6 phosphorylation at Ser235/236 residue by alpha-screen assay; assay type: cell-based

Chain of Phosphatidylinositol 4,5-bisphosphate 3-kinase catalytic subunit alpha isoform (P42336 whole entry, canonical isoform): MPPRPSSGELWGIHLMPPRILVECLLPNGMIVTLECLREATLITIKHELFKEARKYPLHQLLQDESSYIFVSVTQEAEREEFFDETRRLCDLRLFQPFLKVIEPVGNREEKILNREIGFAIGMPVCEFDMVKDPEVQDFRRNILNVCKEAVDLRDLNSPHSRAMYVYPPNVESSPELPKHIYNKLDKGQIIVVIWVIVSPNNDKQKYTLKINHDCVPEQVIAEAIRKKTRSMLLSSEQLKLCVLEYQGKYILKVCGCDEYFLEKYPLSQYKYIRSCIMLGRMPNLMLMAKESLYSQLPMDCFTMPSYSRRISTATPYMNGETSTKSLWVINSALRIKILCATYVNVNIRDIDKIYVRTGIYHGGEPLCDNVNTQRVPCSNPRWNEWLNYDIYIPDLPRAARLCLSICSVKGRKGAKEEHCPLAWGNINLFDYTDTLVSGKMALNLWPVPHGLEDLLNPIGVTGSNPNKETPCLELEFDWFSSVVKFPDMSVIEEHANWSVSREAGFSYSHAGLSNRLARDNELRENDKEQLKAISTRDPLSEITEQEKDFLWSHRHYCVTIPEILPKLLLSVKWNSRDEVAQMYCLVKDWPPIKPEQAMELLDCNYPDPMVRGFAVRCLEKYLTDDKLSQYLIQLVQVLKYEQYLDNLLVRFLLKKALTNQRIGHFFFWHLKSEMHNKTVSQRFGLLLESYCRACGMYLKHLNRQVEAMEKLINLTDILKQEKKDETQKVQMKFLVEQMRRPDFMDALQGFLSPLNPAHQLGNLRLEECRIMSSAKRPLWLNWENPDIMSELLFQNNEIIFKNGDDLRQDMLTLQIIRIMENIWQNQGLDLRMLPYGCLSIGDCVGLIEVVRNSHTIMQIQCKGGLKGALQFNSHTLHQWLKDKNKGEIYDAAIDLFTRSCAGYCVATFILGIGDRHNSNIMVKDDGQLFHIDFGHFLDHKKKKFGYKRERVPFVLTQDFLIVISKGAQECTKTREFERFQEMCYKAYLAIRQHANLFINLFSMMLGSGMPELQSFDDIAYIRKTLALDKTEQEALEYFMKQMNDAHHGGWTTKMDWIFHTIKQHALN
Chain of Phosphatidylinositol 4,5-bisphosphate 3-kinase catalytic subunit gamma isoform (P48736 whole entry, canonical isoform): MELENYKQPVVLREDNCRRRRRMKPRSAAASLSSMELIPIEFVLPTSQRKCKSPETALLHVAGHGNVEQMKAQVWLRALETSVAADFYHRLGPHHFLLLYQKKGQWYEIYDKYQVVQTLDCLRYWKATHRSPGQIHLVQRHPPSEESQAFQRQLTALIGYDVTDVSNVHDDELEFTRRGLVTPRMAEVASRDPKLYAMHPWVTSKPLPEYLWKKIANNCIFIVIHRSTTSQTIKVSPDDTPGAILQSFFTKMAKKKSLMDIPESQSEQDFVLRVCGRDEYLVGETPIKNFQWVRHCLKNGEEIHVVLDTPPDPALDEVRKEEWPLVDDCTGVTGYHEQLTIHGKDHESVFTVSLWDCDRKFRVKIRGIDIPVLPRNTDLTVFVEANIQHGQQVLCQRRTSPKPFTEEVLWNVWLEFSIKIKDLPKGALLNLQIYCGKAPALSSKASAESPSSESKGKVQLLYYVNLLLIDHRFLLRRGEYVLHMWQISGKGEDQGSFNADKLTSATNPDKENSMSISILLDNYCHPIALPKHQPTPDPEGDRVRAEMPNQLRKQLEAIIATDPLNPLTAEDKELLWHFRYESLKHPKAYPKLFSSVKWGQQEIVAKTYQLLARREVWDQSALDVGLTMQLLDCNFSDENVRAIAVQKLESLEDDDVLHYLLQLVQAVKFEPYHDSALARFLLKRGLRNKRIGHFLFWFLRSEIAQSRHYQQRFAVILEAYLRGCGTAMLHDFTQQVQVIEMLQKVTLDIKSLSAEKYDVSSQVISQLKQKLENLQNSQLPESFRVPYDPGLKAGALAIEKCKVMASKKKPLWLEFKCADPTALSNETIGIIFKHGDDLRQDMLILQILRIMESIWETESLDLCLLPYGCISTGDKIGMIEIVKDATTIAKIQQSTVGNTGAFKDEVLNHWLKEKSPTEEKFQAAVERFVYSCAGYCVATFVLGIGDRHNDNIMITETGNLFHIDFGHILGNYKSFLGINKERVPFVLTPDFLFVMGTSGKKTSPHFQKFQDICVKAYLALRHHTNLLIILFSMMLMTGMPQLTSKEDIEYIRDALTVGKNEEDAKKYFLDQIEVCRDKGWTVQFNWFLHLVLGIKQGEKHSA

SMILES: C[C@H]1OC(=O)N(c2nc(-c3cnc(N)nc3C(F)(F)F)cc(N3CCOCC3)n2)[C@H]1CO
- Kp at 5 min [1]: 0.02
- hepatic extraction ratio at 1 h [2]: 0.34
- hepatic extraction ratio at 1 h [3]: 0.37
- IC50 [4]: 12 nM
- IC50 [5]: 230 nM
- IC50 [6]: 263 nM
- IC50 [7]: 99 nM
- IC50 [8]: 88 nM
- Vdss [9]: 2 L/kg
- Vdss [10]: 1.5 L/kg
- half-life [11]: 11 h
- AUC/dose [12]: 3580 nM·h
- AUC/dose [13]: 1738 nM·h
- bioavailability [14]: 98%
- Cmax [15]: 1120 nM
- Cmax/dose [16]: 41 nM
- Cmax/dose [17]: 1121 nM
- Tmax [18]: 24 h
- Tmax [19]: 4 h
- Papp B→A at 2 h, 10 µM [20]: 19 ×10⁻⁶ cm/s
- T/C (Rat1 [21]): 0.43
- inhibition in vivo at 20 mg/kg (Rat1 [22]): > 80%
- Activity [23]: Toxic
- Cmax [24]: 2910 nM
- Cmax [25]: 8950 nM
- concentration at 192 h [26]: 110 nM
- Tlast [27]: 14 h
- IC50 [28]: 1630 nM
